Calls of active or inactive are those of the source.
Columns and labels:
[1] = biological target: T1, E3 ubiquitin-protein ligase XIAP (Homo sapiens, UniProt P98170); test: Counter Screen using XIAP-Bir3 for Chemical Antagonists of Bir1/2 domains of IAP-family anti-apoptotic proteins. [Related pubchem assays (depositor defined):AID1018, AID1449, AID1514, AID1638, AID1749, AID1750, AID488957, AID488963]
[2] = biological target: T1, E3 ubiquitin-protein ligase XIAP; test: small molecules displacing peptide from XIAP – biochemical, IAP family, fluorescence polarization (AID 1018); type: functional
[3] = biological target: T2, Leucine aminopeptidase (Plasmodium falciparum 3D7, UniProt Q8IL11); test: P. falciparum M17LAP inhibitors, primary screen, biochemical, fluorogenic H-Leu-NHMec substrate, 1536-well (AID 1619); type: functional
T2 sequence (Q8IL11 whole entry): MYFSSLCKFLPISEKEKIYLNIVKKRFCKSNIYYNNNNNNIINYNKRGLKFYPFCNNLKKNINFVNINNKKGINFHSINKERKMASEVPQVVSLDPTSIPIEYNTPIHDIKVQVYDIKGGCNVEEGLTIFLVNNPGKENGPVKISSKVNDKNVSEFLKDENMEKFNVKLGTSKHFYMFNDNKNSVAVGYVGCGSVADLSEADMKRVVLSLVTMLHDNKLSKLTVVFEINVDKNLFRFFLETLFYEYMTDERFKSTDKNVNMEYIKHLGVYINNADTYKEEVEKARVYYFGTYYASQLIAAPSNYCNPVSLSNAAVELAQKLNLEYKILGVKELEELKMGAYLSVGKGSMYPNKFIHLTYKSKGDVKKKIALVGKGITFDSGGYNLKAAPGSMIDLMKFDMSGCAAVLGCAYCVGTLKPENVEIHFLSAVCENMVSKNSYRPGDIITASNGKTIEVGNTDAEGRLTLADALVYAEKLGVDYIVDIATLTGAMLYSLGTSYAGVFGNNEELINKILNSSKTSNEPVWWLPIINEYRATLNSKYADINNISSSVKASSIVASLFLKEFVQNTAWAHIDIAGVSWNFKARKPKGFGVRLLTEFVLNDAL

[4] = biological target: T3, Aspartyl aminopeptidase (Plasmodium falciparum 3D7, UniProt Q8I2J3); test: Counterscreen for inhibitors of M1 and M17 aminopeptidases: QFRET-based biochemical high throughput dose response assay for inhibitors of the Plasmodium falciparum M18 Aspartyl Aminopeptidase (PFM18AAP). [Related PubChem assays: 1619 (Screening assay (M17LAP inhibitors).), 1445 (Screening assay (M1AAP inhibitors).)]
T3 sequence (Q8I2J3 whole entry): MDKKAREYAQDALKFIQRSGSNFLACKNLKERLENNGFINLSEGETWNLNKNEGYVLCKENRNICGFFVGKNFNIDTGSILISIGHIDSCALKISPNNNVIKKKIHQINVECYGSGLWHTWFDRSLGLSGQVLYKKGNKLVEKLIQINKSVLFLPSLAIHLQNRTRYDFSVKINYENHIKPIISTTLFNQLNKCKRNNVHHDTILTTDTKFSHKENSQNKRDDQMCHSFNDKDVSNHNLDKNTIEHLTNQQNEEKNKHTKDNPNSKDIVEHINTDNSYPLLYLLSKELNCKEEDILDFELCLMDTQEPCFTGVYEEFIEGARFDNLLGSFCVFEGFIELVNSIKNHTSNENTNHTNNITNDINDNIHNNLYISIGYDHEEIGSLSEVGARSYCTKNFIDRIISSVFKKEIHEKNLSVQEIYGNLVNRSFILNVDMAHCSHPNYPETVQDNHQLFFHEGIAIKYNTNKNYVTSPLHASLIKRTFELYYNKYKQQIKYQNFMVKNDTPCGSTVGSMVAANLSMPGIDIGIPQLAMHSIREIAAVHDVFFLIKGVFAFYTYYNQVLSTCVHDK

[5] = biological target: Procathepsin L (Homo sapiens, UniProt P07711); test: CTSL1 protease inhibition – biochemical, QFRET, 1536-well, counter-screen for M1/M17 aminopeptidase inhibitor project, dose response (AID 2214)
Sequence of Procathepsin L (P07711 whole entry): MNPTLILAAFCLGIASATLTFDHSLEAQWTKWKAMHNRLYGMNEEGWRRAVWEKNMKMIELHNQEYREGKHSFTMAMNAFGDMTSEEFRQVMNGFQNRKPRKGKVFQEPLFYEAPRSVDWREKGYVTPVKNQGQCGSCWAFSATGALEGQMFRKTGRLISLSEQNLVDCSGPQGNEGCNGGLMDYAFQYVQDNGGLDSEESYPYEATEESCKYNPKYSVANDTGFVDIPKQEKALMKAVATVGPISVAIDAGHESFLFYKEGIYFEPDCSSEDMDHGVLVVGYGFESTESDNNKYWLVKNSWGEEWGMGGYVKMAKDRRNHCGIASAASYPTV

[6] = biological target: T4, Replicative DNA helicase DnaB (Mycobacterium tuberculosis, UniProt P9WMR3); test: DnaB intein splicing inhibitors, dose response, biochemical, cell-free fluorescence (AID 449749); type: functional
T4 sequence (P9WMR3 whole entry): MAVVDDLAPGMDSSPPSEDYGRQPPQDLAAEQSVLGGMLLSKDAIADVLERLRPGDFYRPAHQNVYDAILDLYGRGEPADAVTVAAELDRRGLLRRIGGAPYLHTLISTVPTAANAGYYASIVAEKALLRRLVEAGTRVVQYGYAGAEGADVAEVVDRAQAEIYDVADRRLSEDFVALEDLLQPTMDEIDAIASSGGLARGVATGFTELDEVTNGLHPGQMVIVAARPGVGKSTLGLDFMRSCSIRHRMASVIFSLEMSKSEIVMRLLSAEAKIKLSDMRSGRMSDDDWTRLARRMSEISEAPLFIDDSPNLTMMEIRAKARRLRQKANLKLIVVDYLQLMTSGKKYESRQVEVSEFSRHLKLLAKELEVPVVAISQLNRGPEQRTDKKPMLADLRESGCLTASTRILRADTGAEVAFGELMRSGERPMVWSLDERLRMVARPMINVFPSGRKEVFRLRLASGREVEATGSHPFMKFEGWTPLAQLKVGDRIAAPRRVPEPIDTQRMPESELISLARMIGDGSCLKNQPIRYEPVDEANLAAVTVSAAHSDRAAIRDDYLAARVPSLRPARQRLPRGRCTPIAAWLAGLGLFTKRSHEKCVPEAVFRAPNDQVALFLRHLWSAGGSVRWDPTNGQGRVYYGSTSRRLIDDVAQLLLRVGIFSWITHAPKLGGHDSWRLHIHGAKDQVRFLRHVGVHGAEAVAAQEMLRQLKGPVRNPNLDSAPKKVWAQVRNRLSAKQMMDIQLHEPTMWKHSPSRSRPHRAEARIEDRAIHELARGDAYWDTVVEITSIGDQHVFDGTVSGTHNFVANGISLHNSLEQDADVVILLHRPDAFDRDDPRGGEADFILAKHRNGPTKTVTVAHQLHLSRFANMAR

[7] = biological target: T5, Protein RecA (Mycobacterium tuberculosis, UniProt P9WHJ3); test: Fluorescence Cell-Free Homogeneous Dose Retest to Identify Inhibitors of RecA-Intein Splicing Activity. [Related pubchem assays (depositor defined):AID2097, AID2223, AID489010, AID492950]; type: functional
T5 sequence (P9WHJ3 whole entry): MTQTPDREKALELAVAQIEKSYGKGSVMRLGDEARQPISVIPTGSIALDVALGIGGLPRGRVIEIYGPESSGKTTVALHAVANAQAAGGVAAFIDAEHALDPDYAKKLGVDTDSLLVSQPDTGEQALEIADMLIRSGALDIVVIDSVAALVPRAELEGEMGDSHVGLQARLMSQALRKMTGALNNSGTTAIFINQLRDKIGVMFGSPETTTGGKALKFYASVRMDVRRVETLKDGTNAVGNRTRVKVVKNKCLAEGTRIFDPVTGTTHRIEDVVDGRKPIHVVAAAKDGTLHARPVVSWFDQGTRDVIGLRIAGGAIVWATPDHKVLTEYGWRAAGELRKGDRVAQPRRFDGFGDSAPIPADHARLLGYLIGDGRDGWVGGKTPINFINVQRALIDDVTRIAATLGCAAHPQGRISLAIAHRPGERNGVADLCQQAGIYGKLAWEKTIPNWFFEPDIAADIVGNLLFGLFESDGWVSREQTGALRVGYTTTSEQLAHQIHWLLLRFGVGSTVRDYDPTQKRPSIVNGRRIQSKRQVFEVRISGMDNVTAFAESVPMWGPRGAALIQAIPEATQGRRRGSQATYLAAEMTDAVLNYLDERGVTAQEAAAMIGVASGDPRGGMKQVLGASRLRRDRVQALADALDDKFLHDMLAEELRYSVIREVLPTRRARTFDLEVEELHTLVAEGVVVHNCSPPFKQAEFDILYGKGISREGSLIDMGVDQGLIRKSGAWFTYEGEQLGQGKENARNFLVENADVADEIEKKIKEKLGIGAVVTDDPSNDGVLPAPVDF

[8] = biological target: Sphingosine 1-phosphate receptor 2 (Homo sapiens, UniProt O95136); test: Dose Response Cell Based Assay for Agonists of the S1P2 Receptor of Purchased Analogues. [Related pubchem assays: 729, 843, 854, 736 ]; type: functional
Sequence of Sphingosine 1-phosphate receptor 2 (O95136 whole entry): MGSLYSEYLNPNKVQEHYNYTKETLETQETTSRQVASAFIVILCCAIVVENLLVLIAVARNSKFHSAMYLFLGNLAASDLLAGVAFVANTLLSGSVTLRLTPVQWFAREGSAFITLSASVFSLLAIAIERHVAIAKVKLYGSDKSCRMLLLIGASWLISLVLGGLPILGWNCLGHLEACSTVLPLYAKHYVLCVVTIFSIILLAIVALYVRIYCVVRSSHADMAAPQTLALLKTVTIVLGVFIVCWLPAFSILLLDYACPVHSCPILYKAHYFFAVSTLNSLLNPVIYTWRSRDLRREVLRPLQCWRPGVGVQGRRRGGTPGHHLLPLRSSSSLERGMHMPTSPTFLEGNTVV

[9] = Luminescence Cell-Based Dose Response to Identify Activators of 5'UTR Stem-Loop Driven Prion Protein mRNA Translation in H4-C Neuroglioblastoma Cells. [Related pubchem assays: 1829 (Project Summary), 1814 (Primary HTS)]; type: functional
[10] = Luminescence Cell-Based Dose Response HTS to Identify Activators of Luciferase Translation or Activity in H4 […] Cells. [Related pubchem assays: 1829 (Project Summary), 1814 (Primary HTS)]; type: functional
[11] = tested on: H4; test: Luminescence Cell-Based Dose Response HTS to Identify Activators of 5'UTR Stem-Loop Driven Prion Protein mRNA Translation in H4 Neuroglioblastoma Cells. [Related pubchem assays: 1829 (Project Summary), 1814 (Primary HTS)]; type: functional; conditions: Homo sapiens
[12] = Luminescence Cell-Based Dose Response to Identify Activators of Luciferase Translation or Activity in H4-C Neuroglioblastoma Cells. [Related pubchem assays: 1829 (Project Summary), 1814 (Primary HTS)]; type: functional
[13] = Luminescence Cell-Based Dose Confirmation to Identify Activators of 5'UTR Stem-Loop Driven Alpha-Synuclein mRNA Translation in H4 Neuroglioblastoma Cells. [Related pubchem assays: 1829 (Project Summary), 1814 (Primary HTS)]; type: functional
[14] = Luminescent dose response cell-based high throughput screening assay for inhibitors of the Janus kinase 2 mutant JAK2V617F. [Related pubchem assays: 1446 (Primary screen.), 1521 (Confirmation assay.), 1486 (Counter screen.)]; type: functional
[15] = biological target: T6, Heat shock factor protein 1 (Mus musculus, UniProt P38532); test: decrease of HSF1-responsive luciferase luminescence – cell-based, NIH3T3, dose retest, confirmation (AID 2382); type: functional;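 also: NIH3T3 fibroblasts with HSF1-driven luciferase reporter stressed by proteasome inhibitor MG132; luminescence from HSF1-driven luciferase expression after 8 hours of MG132 stress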
T6 sequence (P38532 whole entry): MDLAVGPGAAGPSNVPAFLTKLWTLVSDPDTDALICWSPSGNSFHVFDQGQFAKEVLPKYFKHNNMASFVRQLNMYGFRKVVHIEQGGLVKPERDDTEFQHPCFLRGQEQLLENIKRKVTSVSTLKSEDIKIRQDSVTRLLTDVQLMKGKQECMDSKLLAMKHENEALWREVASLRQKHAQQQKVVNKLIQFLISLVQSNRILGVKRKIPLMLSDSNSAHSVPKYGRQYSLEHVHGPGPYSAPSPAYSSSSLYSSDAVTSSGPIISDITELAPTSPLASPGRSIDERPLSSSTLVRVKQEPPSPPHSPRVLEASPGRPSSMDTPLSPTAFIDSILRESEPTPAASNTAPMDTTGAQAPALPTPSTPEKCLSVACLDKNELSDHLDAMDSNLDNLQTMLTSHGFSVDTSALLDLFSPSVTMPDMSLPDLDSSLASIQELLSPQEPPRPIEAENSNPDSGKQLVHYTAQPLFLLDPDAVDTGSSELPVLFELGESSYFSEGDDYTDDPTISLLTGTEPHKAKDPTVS

[16] = Trypanosoma cruzi growth suppression in host cells – NIH3T3 host cells, beta-gal luminescence, confirmation (AID 2044); type: functional, cell-based;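 also: intracellular parasites grown in NIH/3T3 mouse fibroblasts as host cells; luminescent beta-galactosidase reporter signal from transgenic T. cruzi replicating inside host cells; inhibitors lower the luminescence signal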
[17] = NIH3T3 cell viability loss – ATP luminescence, mouse fibroblasts, counter-screen, dose response (AID 2010); type: functional, cell-based;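 also: cells exposed to compound for about 90 hours before reading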
[18] = tested on: Jurkat; test: blockers of NF-kB activation in T cells – Jurkat, luciferase reporter, luminescence, B- and T-cell, dose response (AID 489004); type: functional, cell-based; conditions: Homo sapiens;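 also: NF-kB luciferase reporter Jurkat cells stimulated with PMA plus ionomycin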
[19] = HEK-293T viability loss, compound-treated – cell-based, uHTS hits, cytotoxicity control for B/T-cell NF-kB inhibitor project, dose response (AID 489019); type: functional;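 also: IC50 reflects cytotoxicity as loss of cell viability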
[20] = biological target: Paired box protein Pax-8 (Homo sapiens, UniProt Q06710); test: PAX8 transcriptional activity inhibition in RMG-I – RMG-I cells, luciferase, cherry-pick, dose response (AID 687027); type: functional, cell-based;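 also: luciferase reporter driven by Pax8 target thyroperoxidase promoter measured by SteadyGlo luminescence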
Sequence of Paired box protein Pax-8 (Q06710 whole entry): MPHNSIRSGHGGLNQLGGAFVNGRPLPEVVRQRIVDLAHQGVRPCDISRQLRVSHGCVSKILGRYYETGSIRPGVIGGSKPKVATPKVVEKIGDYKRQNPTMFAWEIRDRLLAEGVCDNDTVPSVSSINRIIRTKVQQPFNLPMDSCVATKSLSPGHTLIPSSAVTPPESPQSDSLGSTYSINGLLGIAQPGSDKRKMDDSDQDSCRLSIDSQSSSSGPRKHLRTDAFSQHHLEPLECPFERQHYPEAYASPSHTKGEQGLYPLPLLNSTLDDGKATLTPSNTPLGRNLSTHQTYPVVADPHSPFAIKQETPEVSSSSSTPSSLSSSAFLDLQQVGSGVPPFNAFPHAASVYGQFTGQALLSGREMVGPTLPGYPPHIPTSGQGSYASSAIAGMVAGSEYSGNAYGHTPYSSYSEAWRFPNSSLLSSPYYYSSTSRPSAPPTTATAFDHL

[21] = general cell-killing toxicity readout – plate reader, dry powder samples, cytotoxicity control for PAX8 inhibitor project, dose response (AID 743021); type: functional, cell-based
[22] = cells
[23] = biological target: NADPH oxidase 1 (Homo sapiens, UniProt Q9Y5S8); type: functional, cell-based;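 also: Cell-based assay with luminescence read-out, IC50 derived from inhibitor dose-response curves; intracellular ROS from endogenous NOX1 in intact HT29 colon cancer cells; potency of inhibitors that lower the ROS luminescence signal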
Sequence of NADPH oxidase 1 (Q9Y5S8 whole entry): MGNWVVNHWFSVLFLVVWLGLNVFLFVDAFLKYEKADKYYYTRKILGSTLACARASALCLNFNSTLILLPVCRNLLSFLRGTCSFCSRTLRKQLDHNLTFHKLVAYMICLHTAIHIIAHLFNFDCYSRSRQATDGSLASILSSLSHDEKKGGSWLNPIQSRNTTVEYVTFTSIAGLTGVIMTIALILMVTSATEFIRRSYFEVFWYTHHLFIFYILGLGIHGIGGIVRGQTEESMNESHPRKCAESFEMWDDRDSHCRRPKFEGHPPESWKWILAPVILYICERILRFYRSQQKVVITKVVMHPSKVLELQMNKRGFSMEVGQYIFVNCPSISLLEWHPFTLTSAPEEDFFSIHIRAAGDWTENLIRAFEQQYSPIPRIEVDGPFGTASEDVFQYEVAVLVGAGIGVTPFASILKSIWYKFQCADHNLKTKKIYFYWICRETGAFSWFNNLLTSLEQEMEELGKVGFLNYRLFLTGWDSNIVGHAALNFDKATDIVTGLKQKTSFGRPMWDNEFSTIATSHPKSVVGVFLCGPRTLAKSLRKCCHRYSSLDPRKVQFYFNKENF

T1 sequence (P98170 whole entry): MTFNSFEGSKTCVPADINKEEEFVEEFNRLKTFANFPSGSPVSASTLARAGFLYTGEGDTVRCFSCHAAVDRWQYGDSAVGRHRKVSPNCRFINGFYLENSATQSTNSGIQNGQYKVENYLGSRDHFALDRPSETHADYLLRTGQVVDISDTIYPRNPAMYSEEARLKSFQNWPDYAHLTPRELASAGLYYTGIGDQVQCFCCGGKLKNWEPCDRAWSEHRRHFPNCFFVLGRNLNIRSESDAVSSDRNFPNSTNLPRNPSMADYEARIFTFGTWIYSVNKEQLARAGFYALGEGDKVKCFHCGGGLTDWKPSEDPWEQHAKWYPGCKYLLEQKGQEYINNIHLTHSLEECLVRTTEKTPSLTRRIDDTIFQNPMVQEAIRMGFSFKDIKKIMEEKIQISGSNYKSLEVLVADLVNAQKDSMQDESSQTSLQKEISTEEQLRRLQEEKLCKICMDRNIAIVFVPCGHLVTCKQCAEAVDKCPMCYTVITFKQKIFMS

## O=C(NC(=S)NC1CC1)c1cccnc1
[1]
  IC50: > 100 µM (inactive)
[2]
  IC50: > 100 µM (not active)

## COc1ccc(-c2cc(=O)[nH][nH]2)cc1OC
[3]
  IC50: 7.86 µM (active)
[4]
  IC50: > 73.5 µM (not active)
[5]
  IC50: > 59.6 µM (not active)
[6]
  AC50: 1.01 µM (active)
[7]
  EC50: 0.38 µM (active)

## Cc1cc(C(=O)CSc2nnnn2C)c(C)n1Cc1ccccc1
[8]
  EC50: 30 µM (not active)

## CC1(C)CC(=O)/C(=N/Nc2ccc(Cl)cc2)CO1
[9]
  EC50: 0.422 µM (active)
[10]
  EC50: 0.207 µM (active)
[11]
  EC50: < 0.1 µM (active)
[12]
  EC50: 0.324 µM (active)
[13]
  EC50: 0.504 µM (active)

## O=C(CCl)/N=c1\sccn1Cc1ccc(Cl)cc1Cl
[14]
  IC50: 0.235 µM (active)
[15]
  EC50: 0.361 µM (active)
[16]
  EC50: < 0.1 µM (active)
[17]
  EC50: 0.192 µM (active)
[18]
  IC50: < 0.16 µM (active)
[19]
  IC50: > 80 µM (inactive)
[6]
  AC50: 27.2 µM (active)
[7]
  EC50: 15.1 µM (active)
[20]
  AC50: 1.36 µM (active)
[21]
  AC50: 2.54 µM (active)
[22]
  EC50: < 0.004 µM (active)

## COc1ccccc1OC(=O)c1sc2ccccc2c1Cl
[23]
  IC50: > 17 µM (not active)
